# Reference: ChEMBL document CHEMBL1201862, “PubChem BioAssay data set” (2004)
#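 These data come from cells grown in 96-well plates and exposed to compound for 48 hours at five concentrations. GI50 = concentration required for 50% inhibition of growth.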 The source made the active and inactive calls. No stated cut-off is given here; in the data, active = GI50 up to about 1.1 µM and inactive = higher.
# What was measured:
# Test in all cases: NCI tumour cell line growth inhibition, 48 h
# A498 = system: A498
# UACC-62 = system: UACC-62
# OVCAR-4 = system: OVCAR-4
# K562 = system: K562
# SW-620 = system: SW-620
# NCI-H522 = system: NCI-H522
# SN12C = system: SN12C
# ACHN = system: ACHN
# SF-539 = system: SF-539
# A549 = system: A549
# SK-MEL-5 = system: SK-MEL-5
# DMS-114 = system: DMS-114
# OVCAR-5 = system: OVCAR-5
# IGROV-1 = system: IGROV-1
# SF-295 = system: SF-295
# M19-MEL = system: M19-MEL
# OVCAR-3 = system: OVCAR-3
# COLO 205 = system: COLO 205
# UO-31 = system: UO-31
# HOP-18 = system: HOP-18
# HOP-62 = system: HOP-62
# KM-20L2 = system: KM-20L2
# RXF 631 = system: RXF 631
# MOLT-4 = system: MOLT-4
# SNB-78 = system: SNB-78
# LOX IMVI = system: LOX IMVI
# EKVX = system: EKVX
# HT-29 = system: HT-29
# RPMI-8226 = system: RPMI-8226
# SNB-75 = system: SNB-75
# HCT-15 = system: HCT-15
# 786-0 = system: 786-0
# HCC 2998 = system: HCC 2998
# OVCAR-8 = system: OVCAR-8
# NCI-H460 = system: NCI-H460
# TK-10 = system: TK-10
# HCT-116 = system: HCT-116
# Malme-3M = system: Malme-3M
# SK-MEL-2 = system: SK-MEL-2
# LXFL 529 = system: LXFL 529
# HL-60 = system: HL-60
# U-251 = system: U-251
# M14 = system: M14
# RXF 393 = system: RXF 393
# NCI-H23 = system: NCI-H23
# HOP-92 = system: HOP-92
# CCRF-CEM = system: CCRF-CEM
# SF-268 = system: SF-268
# SK-MEL-28 = system: SK-MEL-28
# SK-OV-3 = system: SK-OV-3
# DLD-1 = system: DLD-1
# SNB-19 = system: SNB-19
# UACC-257 = system: UACC-257
# NCI-H226 = system: NCI-H226
# KM12 = system: KM12
# XF498 = system: XF498
# CAKI-1 = system: CAKI-1
# DMS-273 = system: DMS-273
# SR = system: SR
smiles,measurement,setting,value
COc1ccc(/C(=N/NC(=O)NN)C(c2ccc(OC)cc2)C2(O)CNc3c(Cl)cc(Cl)cc32)cc1 (stereo not drawn),GI50,A498,> 100 µM (inactive)
same,GI50,UACC-62,99.1 µM (inactive)
same,GI50,OVCAR-4,> 100 µM (inactive)
same,GI50,K562,> 100 µM (inactive)
same,GI50,SW-620,> 100 µM (inactive)
same,GI50,NCI-H522,> 100 µM (inactive)
same,GI50,SN12C,> 100 µM (inactive)
same,GI50,ACHN,> 100 µM (inactive)
same,GI50,SF-539,> 100 µM (inactive)
same,GI50,A549,> 100 µM (inactive)
same,GI50,SK-MEL-5,> 100 µM (inactive)
same,GI50,DMS-114,71.8 µM (inactive)
same,GI50,OVCAR-5,> 100 µM (inactive)
same,GI50,IGROV-1,> 100 µM (inactive)
same,GI50,SF-295,> 100 µM (inactive)
same,GI50,M19-MEL,> 100 µM (inactive)
same,GI50,OVCAR-3,> 100 µM (inactive)
same,GI50,COLO 205,> 100 µM (inactive)
same,GI50,UO-31,> 100 µM (inactive)
same,GI50,HOP-18,53.2 µM (inactive)
same,GI50,HOP-62,> 100 µM (inactive)
same,GI50,KM-20L2,> 100 µM (inactive)
same,GI50,RXF 631,48.3 µM (inactive)
same,GI50,MOLT-4,44.7 µM (inactive)
same,GI50,SNB-78,> 100 µM (inactive)
same,GI50,LOX IMVI,> 100 µM (inactive)
same,GI50,EKVX,> 100 µM (inactive)
same,GI50,HT-29,89.9 µM (inactive)
same,GI50,RPMI-8226,60.8 µM (inactive)
same,GI50,SNB-75,> 100 µM (inactive)
same,GI50,HCT-15,> 100 µM
same,GI50,786-0,> 100 µM (inactive)
same,GI50,HCC 2998,> 100 µM (inactive)
same,GI50,OVCAR-8,> 100 µM (inactive)
same,GI50,NCI-H460,> 100 µM (inactive)
same,GI50,TK-10,> 100 µM (inactive)
same,GI50,HCT-116,50.9 µM (inactive)
same,GI50,Malme-3M,> 100 µM (inactive)
same,GI50,SK-MEL-2,> 100 µM (inactive)
same,GI50,LXFL 529,65.6 µM (inactive)
same,GI50,HL-60,> 100 µM (inactive)
same,GI50,U-251,> 100 µM (inactive)
same,GI50,M14,> 100 µM (inactive)
same,GI50,RXF 393,> 100 µM (inactive)
same,GI50,NCI-H23,> 100 µM (inactive)
same,GI50,HOP-92,37.7 µM (inactive)
same,GI50,CCRF-CEM,88.9 µM (inactive)
same,GI50,SF-268,> 100 µM (inactive)
same,GI50,SK-MEL-28,> 100 µM (inactive)
same,GI50,SK-OV-3,81.8 µM (inactive)
same,GI50,DLD-1,> 100 µM (inactive)
same,GI50,SNB-19,> 100 µM (inactive)
same,GI50,UACC-257,> 100 µM (inactive)
same,GI50,NCI-H226,> 100 µM (inactive)
same,GI50,KM12,> 100 µM (inactive)
O=c1[nH]nc2c3n[nH]c(=O)n3c3ccccc3n12,GI50,A498,47.1 µM (inactive)
same,GI50,UACC-62,> 100 µM (inactive)
same,GI50,OVCAR-4,> 100 µM (inactive)
same,GI50,K562,> 100 µM (inactive)
same,GI50,SW-620,> 100 µM (inactive)
same,GI50,NCI-H522,66.1 µM (inactive)
same,GI50,SN12C,> 100 µM (inactive)
same,GI50,ACHN,> 100 µM (inactive)
same,GI50,SF-539,69.8 µM (inactive)
same,GI50,A549,> 100 µM (inactive)
same,GI50,SK-MEL-5,> 100 µM (inactive)
same,GI50,DMS-114,> 100 µM (inactive)
same,GI50,OVCAR-5,> 100 µM (inactive)
same,GI50,IGROV-1,> 100 µM (inactive)
same,GI50,SF-295,> 100 µM (inactive)
same,GI50,M19-MEL,> 100 µM (inactive)
same,GI50,OVCAR-3,> 100 µM (inactive)
same,GI50,COLO 205,> 100 µM (inactive)
same,GI50,UO-31,49.3 µM (inactive)
same,GI50,HOP-62,> 100 µM (inactive)
same,GI50,KM-20L2,> 100 µM (inactive)
same,GI50,RXF 631,> 100 µM (inactive)
same,GI50,MOLT-4,> 100 µM (inactive)
same,GI50,SNB-78,> 100 µM (inactive)
same,GI50,LOX IMVI,> 100 µM (inactive)
same,GI50,EKVX,93.8 µM (inactive)
same,GI50,HT-29,> 100 µM (inactive)
same,GI50,XF498,> 100 µM (inactive)
same,GI50,RPMI-8226,> 100 µM (inactive)
same,GI50,SNB-75,57.5 µM (inactive)
same,GI50,HCT-15,> 100 µM
same,GI50,786-0,> 100 µM (inactive)
same,GI50,HCC 2998,> 100 µM (inactive)
same,GI50,OVCAR-8,> 100 µM (inactive)
same,GI50,NCI-H460,> 100 µM (inactive)
same,GI50,TK-10,> 100 µM (inactive)
same,GI50,HCT-116,> 100 µM (inactive)
same,GI50,Malme-3M,> 100 µM (inactive)
same,GI50,SK-MEL-2,> 100 µM (inactive)
same,GI50,LXFL 529,> 100 µM (inactive)
same,GI50,U-251,> 100 µM (inactive)
same,GI50,M14,> 100 µM (inactive)
same,GI50,RXF 393,> 100 µM (inactive)
same,GI50,NCI-H23,> 100 µM (inactive)
same,GI50,HOP-92,63.7 µM (inactive)
same,GI50,CCRF-CEM,> 100 µM (inactive)
same,GI50,CAKI-1,> 100 µM (inactive)
same,GI50,DMS-273,> 100 µM (inactive)
same,GI50,SF-268,> 100 µM (inactive)
same,GI50,SK-MEL-28,> 100 µM (inactive)
same,GI50,SK-OV-3,> 100 µM (inactive)
same,GI50,DLD-1,> 100 µM (inactive)
same,GI50,SNB-19,> 100 µM (inactive)
same,GI50,UACC-257,> 100 µM (inactive)
same,GI50,NCI-H226,50.1 µM (inactive)
same,GI50,KM12,> 100 µM (inactive)
CC1(C)CCC[C@@]2(C)C1CC[C@H]1CC(O)C3(C)CCC12C3 (stereo partly drawn),GI50,UACC-62,15.8 µM (inactive)
same,GI50,OVCAR-4,18.1 µM (inactive)
same,GI50,K562,32.1 µM (inactive)
same,GI50,SW-620,17.1 µM (inactive)
same,GI50,NCI-H522,16.6 µM (inactive)
same,GI50,SN12C,16.9 µM (inactive)
same,GI50,ACHN,17.9 µM (inactive)
same,GI50,SF-539,18.9 µM (inactive)
same,GI50,A549,18.7 µM (inactive)
same,GI50,SK-MEL-5,17.5 µM (inactive)
same,GI50,DMS-114,17.3 µM (inactive)
same,GI50,OVCAR-5,18.2 µM (inactive)
same,GI50,IGROV-1,22.2 µM (inactive)
same,GI50,SR,21.3 µM (inactive)
same,GI50,M19-MEL,21.1 µM (inactive)
same,GI50,OVCAR-3,16.7 µM (inactive)
same,GI50,UO-31,17.5 µM (inactive)
same,GI50,HOP-62,19.1 µM (inactive)
same,GI50,KM-20L2,18.9 µM (inactive)
same,GI50,RXF 631,19.1 µM (inactive)
same,GI50,MOLT-4,22 µM (inactive)
same,GI50,SNB-78,17.2 µM (inactive)
same,GI50,LOX IMVI,15.4 µM (inactive)
same,GI50,HT-29,18.2 µM (inactive)
same,GI50,XF498,17.4 µM (inactive)
same,GI50,RPMI-8226,25.8 µM (inactive)
same,GI50,SNB-75,22.9 µM (inactive)
same,GI50,HCT-15,18.2 µM
same,GI50,786-0,17.5 µM (inactive)
same,GI50,HCC 2998,19.8 µM (inactive)
same,GI50,OVCAR-8,18.5 µM (inactive)
same,GI50,NCI-H460,18.5 µM (inactive)
same,GI50,TK-10,14.4 µM (inactive)
same,GI50,HCT-116,17.3 µM (inactive)
same,GI50,Malme-3M,16.9 µM (inactive)
same,GI50,LXFL 529,17.2 µM (inactive)
same,GI50,HL-60,23.3 µM (inactive)
same,GI50,U-251,18.2 µM (inactive)
same,GI50,M14,17.1 µM (inactive)
same,GI50,RXF 393,13.3 µM (inactive)
same,GI50,NCI-H23,18.7 µM (inactive)
same,GI50,HOP-92,15.6 µM (inactive)
same,GI50,CCRF-CEM,26.4 µM (inactive)
same,GI50,CAKI-1,16.6 µM (inactive)
same,GI50,SF-268,19.2 µM (inactive)
same,GI50,SK-MEL-28,18.4 µM (inactive)
same,GI50,SK-OV-3,18.3 µM (inactive)
same,GI50,DLD-1,17.1 µM (inactive)
same,GI50,SNB-19,18 µM (inactive)
same,GI50,UACC-257,18.2 µM (inactive)
same,GI50,NCI-H226,20 µM (inactive)
same,GI50,KM12,17.5 µM (inactive)
